Results on two compounds are retold here after patent US10987372B2, “Anti-hepatoma-virus agent” (KAGOSHIMA UNIVERSITY, priority 2016, dated 2021).

Each structure is given as a SMILES string.

One data set has as its system HBV. Put plainly: Determination of anti-HBV activity: HBV DNA by quantitative PCR in HepG2.2.15 cells. It counts as cell-based. As to conditions: for anti-HBV activity (intracellular HBV DNA amount): 1 μM, culture for 7 days, quantitative PCR (FIG. 3). As for the experimental part:
FIG. 3 is a graph showing anti-HBV activity levels of purine antimetabolites. HepG2.2.15 cells were seeded at a concentration of 1×10^5 cells/well. Then, 24 hours later, purine antimetabolites (clofarabine, cladribine, and fludarabine) and entecavir (ETV) were each diluted to result in a final concentration of 1 μM and each dilution was added to cells. After culture for 7 days, the cytoplasmic fraction was collected and DNA was purified by phenol-chloroform extraction. The intracellular HBV DNA amount was evaluated by quantitative PCR using 20 ng of purified DNA.
FIG. 5 is a graph showing anti-HBV activity of clofarabine. HepG2.2.15 cells were seeded at a concentration of 1×10^5 cells/well. Then, 24 hour later, clofarabine was diluted to result in concentrations of 0, 0.97, 1.95, 3.90, 7.81, 15.6, 31.3, 62.5, 125, 250, 500, and 1000 nM and each dilution was added to cells. After culture for 7 days, the cytoplasmic fraction was collected and DNA was purified by phenol-chloroform extraction. The intracellular HBV DNA amount was evaluated by quantitative PCR using 20 ng of purified DNA.
Anti-HBV activity was evaluated by quantitative PCR for determining the amount of HBV DNA in cells or HBV DNA in the culture supernatant on day 7 after the addition of the agent using the HepG2.2.15 cell line of HBV-producing cells obtained by introducing a gene having a length twice that of the HBV genome into the human liver cancer cell line HepG2. For PCR of HBV DNA, a forward primer (HBV-S190F; 5′-GCT CGT GTT ACA GGC GGG-3′: SEQ ID NO: 1) and a reverse primer (HBV-S703R; 5′-GAACCACTGAACAAATGGCACTAGTA-3′: SEQ ID NO: 2) were used. PCR was performed by carrying out a reaction at 95° C. for 10 sec, 62° C. for 10 sec, and 72° C. for 30 sec for 35 cycles.
For screening of the anti-HBV agent, the HepG2.2.15 line obtained by introducing the HBV gene into HepG2 cells of a human cancer cell line was used (Production of hepatitis B virus particles in HepG2 cells transfected with cloned hepatitis B virus DNA. Sells M A, Chen M L, and Acs G., Proc. Natl. Acad. Sci. USA 84: 1005-1009 (1987)). […]

The next data set relates to HCV. Kind of data set: Evaluation of anti-HCV activity: Renilla luciferase HCV RNA replication reporter in OR6 cells. The class given is cell-based. As to conditions: 1 μM, culture for 3 days (FIG. 4). As for the experimental part: FIG. 4 is a graph showing anti-HCV activity levels of purine antimetabolites. OR6 cells were seeded at a concentration of 1.5×10^4 cells/well. Then, 24 hours later, purine antimetabolites were each diluted to result in a final concentration of 1 μM and each dilution was added to cells. After culture for 3 days, cells were collected to determine Renilla luciferase activity.
FIG. 7 is a graph showing anti-HCV activity of clofarabine. OR6 cells were seeded at a concentration of 1.5×10^4 cells/well. Then, 24 hour later, clofarabine was diluted to result in concentrations of 0, 15.6, 31.3, 62.5, 125, 250, 500, and 1000 nM and each dilution was added to cells. After culture for 3 days, cells were collected to determine Renilla luciferase activity.
Anti-HCV activity was evaluated using OR6 cells from the human liver cancer cell line HuH-7 and ORL8 cells from the human liver cancer cell line Li23. Since the Renilla Luciferase gene has been incorporated into the genome of the genotype-1b O strain in OR6 cells and ORL8 cells, it is possible to conveniently and accurately evaluate the level of HCV RNA replication by determining the Renilla Luciferase activity. Each agent was added to OR6 cells or ORL8 cells, the cells were recovered on day 3, and the Renilla Luciferase activity was determined. […]

The test system of a further data set is leukemia. As to conditions: clinical use for leukemia; cited from earlier work.

With `Nc1nc(Cl)nc2c1ncn2[C@H]1C[C@H](O)[C@@H](CO)O1` [cladribine, 2-chloro-9-(2-deoxy-β-D-arabinofuranosyl)adenine], the “anti-HBV activity (intracellular HBV DNA amount)” value in the data set with HBV is on record as “does not have anti-HBV activity”. Besides, the “anti-HCV activity (Renilla luciferase activity)” value in the data set on HCV is recorded as “has anti-HCV activity”.
Regarding `Nc1nc(Cl)nc2c1ncn2[C@@H]1O[C@H](CO)[C@@H](O)[C@@H]1F` [clofarabine, 2-chloro-9-(2-deoxy-2-fluoro-β-D-arabinofuranosyl)adenine], the “anti-HBV activity (intracellular HBV DNA amount)” value in the data set on HBV was “comparable to that of entecavir”. Also, the “concentration at which anti-HBV activity is exhibited” value with HBV (7 days (FIG. 5)) was “about 20 nM”. Besides, in the data set on leukemia, the “effective blood level for leukemia” value is on record as “about 2 μM”. The “anti-HCV activity (Renilla luciferase activity)” value in the data set on HCV is listed as “comparable to that of sofosbuvir”.
